Assay results reported in PubChem BioAssay AID1963862 (Molecular Pharmacology Branch, DTP, NCI, 2024).

Test system: KRAS patient-derived spheroids with HUVEC/MSC, viability
Test: Anticancer human tumor 941728-121-R-J1-PDC patient-derived lung adenocarcinoma cell line growth inhibition [KRAS2]
Conditions: for IC50: curve of first compound; for viability, T/C: stronger effect = lower value
Description: Multicellular complex tumor spheroid response to RAS pathway inhibitors in combination with a targeted agents in patient-derived cell lines with oncogenic KRAS variants from multiple cancer types
A high-throughput screen of multi-cell type tumor spheroids was designed to identify active combinations of targeted small molecules and KRAS pathway inhibitors. Complex spheroids include a stromal component modeled by human endothelial cells (HUVEC) and fibroblasts modeled by human mesenchymal stem cells (MSCs). The concentration ranges selected for each drug and investigational agent were based upon clinically achievable concentrations if the clinical Cmax of the agent was known.
Compounds. The drugs and investigational agents: BI-3406 (NSC825286), BAY-293 (NSC824723), batoprotafib (TNO155; NSC825523), sotorasib (AMG 510; NSC818433), MRTX1257 (NSC819558), elimusertib (BAY 1895344; NSC800525), molibresib (GSK525762; NSC774829), temuterkib (LY3214996; NSC803410), venetoclax (NSC766270), alisertib (NSC759677), olaparib (NSC753686), talazoparib (NSC767125), erdafitinib (NSC781556), ipatasertib (NSC767898), cabozantinib (NSC761068), nintedanib (NSC756659), abemaciclib (NSC768073), docetaxel (NSC628503), trametinib (NSC758246), and sapanisertib (NSC764658) were obtained from the National Cancer Institute (NCI) Developmental Therapeutics Program Chemical Repository. The FDA-approved anticancer drug set is available from the Developmental Therapeutics Program. […] The stock solutions were prepared in dimethyl sulfoxide (DMSO, Sigma-Aldrich, St. Louis, MO, cat. D2650) at 800-fold the tested concentration and stored at -70 degrees C prior to their use. All drugs and investigational agents were tested over a range starting from a high concentration at or near the clinical Cmax and decreasing in half-log increments. If the clinical Cmax for an agent had not been determined, the highest concentration tested was 10 microM.
Cell Culture. All cells were maintained in an incubator at 37 degrees C and 5% CO2 with 95% humidity. The PDC lines were cultured according to standard operating procedures established by the NCI PDMR (https://pdmr.cancer.gov/sops/default.htm). Briefly, all PDCs were thawed and cultured in Matrigel-coated flasks prepared with a working solution of 1X Ham's F-12 nutrient mix, without supplementation (Invitrogen, Waltham, MA, cat. 11765054), 100 U/mL penicillin-streptomycin (Invitrogen, cat. 15140122), and 2.5% Matrigel (Corning Inc., Corning, NY, cat. 354248) for the first three passages. All PDCs were cultured in complete DMEM/F-12 media containing advanced DMEM/F-12 (Invitrogen, cat. 12634028), 4.9% defined fetal bovine serum, heat inactivated (HyClone Laboratories Inc., Logan, UT, cat. SH30070.03HI), 389 ng/mL hydrocortisone (Sigma-Aldrich, cat. H4001), 9.7 ng/mL human EGF recombinant protein (Invitrogen, cat. PHG0313), 23.4 microg/mL adenine (Sigma-Aldrich, cat. A2786), 97.3 U/mL penicillin-streptomycin (Invitrogen, cat. 15140122), 1.9 mM L-glutamine (Invitrogen, cat. 25030081), and 9.7 microM Y-27632 dihydrochloride (Tocris Bioscience, Bristol, United Kingdom, cat. 1254). The PDCs were cultured in complete DMEM/F12 media without 9.7 microM Y-27632 dihydrochloride for at least two passages prior to the screen. The established cell line HOP-62 was cultured in RPMI 1640 medium, HEPES (Invitrogen, cat. 22400105) with 10% defined fetal bovine serum (HyClone Laboratories Inc., cat. SH30070.03) and 2 mM L-glutamine (Invitrogen, cat. 25030081). The pooled donor HUVEC were cultured in endothelial cell growth medium 2 (PromoCell, Heidelberg, Germany, cat. C-22011) and the hMSC were cultured in mesenchymal stem cell growth medium 2 (PromoCell, cat. C-28009). For all experiments, HUVEC and hMSC were used at passages </=5, while the malignant cell lines were used at passages </=15. […]

[1] = second compound 0.1 µM, first compound 0.0316 µM
[2] = second compound 0.1 µM, first compound 0.1 µM
[3] = second compound 0.1 µM, first compound 0.316 µM
[4] = second compound 0.1 µM, first compound 1 µM
[5] = second compound 0.1 µM, first compound 3.16 µM
[6] = second compound 0.1 µM, first compound 10 µM
[7] = second compound 0.316 µM, first compound 0.0316 µM
[8] = second compound 0.316 µM, first compound 0.1 µM
[9] = second compound 0.316 µM, first compound 0.316 µM
[10] = second compound 0.316 µM, first compound 1 µM
[11] = second compound 0.316 µM, first compound 3.16 µM
[12] = second compound 0.316 µM, first compound 10 µM
[13] = second compound 1 µM, first compound 0.0316 µM
[14] = second compound 1 µM, first compound 0.1 µM
[15] = second compound 1 µM, first compound 0.316 µM
[16] = second compound 1 µM, first compound 1 µM
[17] = second compound 1 µM, first compound 3.16 µM
[18] = second compound 1 µM, first compound 10 µM
[19] = second compound 3.16 µM, first compound 0.0316 µM
[20] = second compound 3.16 µM, first compound 0.1 µM
[21] = second compound 3.16 µM, first compound 0.316 µM
[22] = second compound 3.16 µM, first compound 1 µM
[23] = second compound 3.16 µM, first compound 3.16 µM
[24] = second compound 3.16 µM, first compound 10 µM
[25] = second compound 10 µM, first compound 0.0316 µM
[26] = second compound 10 µM, first compound 0.1 µM
[27] = second compound 10 µM, first compound 0.316 µM
[28] = second compound 10 µM, first compound 1 µM
[29] = second compound 10 µM, first compound 3.16 µM
[30] = second compound 10 µM, first compound 10 µM
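Also: spheroids exposed to agents for seven days before readout.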

CC1(C)CCC(CN2CCN(c3ccc(C(=O)NS(=O)(=O)c4ccc(NCC5CCOCC5)c([N+](=O)[O-])c4)c(Oc4cnc5[nH]ccc5c4)c3)CC2)=C(c2ccc(Cl)cc2)C1 + C=CC(=O)N1CCN(c2nc(OCC3CCCN3C)nc3c2CCN(c2cccc4cccc(C)c24)C3)CC1CC#N
IC50 (second compound 0.0316 µM): < 31.6 nM | IC50 (second compound 0.1 µM): < 31.6 nM | IC50 (second compound 0.316 µM): < 31.6 nM | IC50 (second compound 1 µM): < 31.6 nM | IC50 (second compound 3.16 µM): < 31.6 nM | viability, T/C (second compound 0.0316 µM, first compound 0.0316 µM): 26.6% | viability, T/C (second compound 0.0316 µM, first compound 0.1 µM): 26.4% | viability, T/C (second compound 0.0316 µM, first compound 0.316 µM): 26.4% | viability, T/C (second compound 0.0316 µM, first compound 1 µM): 24% | viability, T/C (second compound 0.0316 µM, first compound 3.16 µM): 6% | viability, T/C (second compound 0.0316 µM, first compound 10 µM): 4.38% | viability, T/C [1]: 26.5% | viability, T/C [2]: 23.7% | viability, T/C [3]: 24.9% | viability, T/C [4]: 25.1% | viability, T/C [5]: 5.88% | viability, T/C [6]: 2.8% | viability, T/C [7]: 25.2% | viability, T/C [8]: 25.5% | viability, T/C [9]: 25% | viability, T/C [10]: 25.8% | viability, T/C [11]: 5.25% | viability, T/C [12]: 3.74% | viability, T/C [13]: 22.6% | viability, T/C [14]: 21.4% | viability, T/C [15]: 21.4% | viability, T/C [16]: 21.4% | viability, T/C [17]: 5.13% | viability, T/C [18]: 1.61% | viability, T/C [19]: 0.12% | viability, T/C [20]: 0.13% | viability, T/C [21]: 0.1% | viability, T/C [22]: 0.09% | viability, T/C [23]: 0.08% | viability, T/C [24]: 0.12%

COc1cc(Nc2ncc3c(n2)-c2ccc(Cl)cc2C(c2c(F)cccc2OC)=NC3)ccc1C(=O)O + CNCc1ccccc1-c1csc(C(C)Nc2nc(C)nc3cc(OC)c(OC)cc23)c1
IC50 (second compound 0.1 µM): < 31.6 nM | IC50 (second compound 0.316 µM): < 31.6 nM | IC50 (second compound 1 µM): < 31.6 nM | IC50 (second compound 3.16 µM): < 31.6 nM | IC50 (second compound 10 µM): < 31.6 nM | viability, T/C [1]: 48.4% | viability, T/C [2]: 47.5% | viability, T/C [3]: 37.5% | viability, T/C [4]: 45.4% | viability, T/C [5]: 47.6% | viability, T/C [6]: 34.7% | viability, T/C [7]: 44.2% | viability, T/C [8]: 36% | viability, T/C [9]: 32.6% | viability, T/C [10]: 32.2% | viability, T/C [11]: 36.4% | viability, T/C [12]: 33.6% | viability, T/C [13]: 31.4% | viability, T/C [14]: 28.4% | viability, T/C [15]: 27.3% | viability, T/C [16]: 27.5% | viability, T/C [17]: 25.6% | viability, T/C [18]: 15.1% | viability, T/C [19]: 0.4% | viability, T/C [20]: 0.28% | viability, T/C [21]: 0.18% | viability, T/C [22]: 0.33% | viability, T/C [23]: 0.26% | viability, T/C [24]: 4.13% | viability, T/C [25]: 0.15% | viability, T/C [26]: 0.22% | viability, T/C [27]: 0.1% | viability, T/C [28]: 0.1% | viability, T/C [29]: 0.11% | viability, T/C [30]: 0.5%

CC1(C)CCC(CN2CCN(c3ccc(C(=O)NS(=O)(=O)c4ccc(NCC5CCOCC5)c([N+](=O)[O-])c4)c(Oc4cnc5[nH]ccc5c4)c3)CC2)=C(c2ccc(Cl)cc2)C1 + C=CC(=O)N1CCN(c2nc(=O)n(-c3c(C)ccnc3C(C)C)c3nc(-c4c(O)cccc4F)c(F)cc23)C(C)C1
IC50 (second compound 0.1 µM): < 31.6 nM | IC50 (second compound 0.316 µM): < 31.6 nM | IC50 (second compound 1 µM): < 31.6 nM | IC50 (second compound 3.16 µM): < 31.6 nM | IC50 (second compound 10 µM): < 31.6 nM | viability, T/C [1]: 20.2% | viability, T/C [2]: 17.6% | viability, T/C [3]: 17.8% | viability, T/C [4]: 17.4% | viability, T/C [5]: 7.67% | viability, T/C [6]: 2.7% | viability, T/C [7]: 18.6% | viability, T/C [8]: 16.1% | viability, T/C [9]: 16.4% | viability, T/C [10]: 16.3% | viability, T/C [11]: 9.65% | viability, T/C [12]: 4.02% | viability, T/C [13]: 20.8% | viability, T/C [14]: 19.7% | viability, T/C [15]: 29.4% | viability, T/C [16]: 17% | viability, T/C [17]: 13.2% | viability, T/C [18]: 4.29% | viability, T/C [19]: 19.3% | viability, T/C [20]: 16.4% | viability, T/C [21]: 22.5% | viability, T/C [22]: 18.2% | viability, T/C [23]: 15.2% | viability, T/C [24]: 4.62% | viability, T/C [25]: 25.3% | viability, T/C [26]: 24.8% | viability, T/C [27]: 25.7% | viability, T/C [28]: 22.4% | viability, T/C [29]: 8.54% | viability, T/C [30]: 8.81%

CC1COCCN1c1cc(-c2ccnn2C)c2ccnc(-c3ccn[nH]3)c2n1 (stereo not given) + CC1OCC2(CCN(c3cnc(Sc4ccnc(N)c4Cl)c(N)n3)CC2)C1N
IC50 (second compound 0.1 µM): < 10 nM | IC50 (second compound 0.316 µM): < 10 nM | IC50 (second compound 1 µM): < 10 nM | IC50 (second compound 3.16 µM): < 10 nM | IC50 (second compound 10 µM): < 10 nM | viability, T/C (second compound 0.1 µM, first compound 0.01 µM): 43.9% | viability, T/C [1]: 28.7% | viability, T/C [2]: 27.2% | viability, T/C [3]: 26.4% | viability, T/C [4]: 25.4% | viability, T/C [5]: 28.2% | viability, T/C (second compound 0.316 µM, first compound 0.01 µM): 32.9% | viability, T/C [7]: 30.4% | viability, T/C [8]: 25.3% | viability, T/C [9]: 23.1% | viability, T/C [10]: 19.9% | viability, T/C [11]: 21.6% | viability, T/C (second compound 1 µM, first compound 0.01 µM): 29.5% | viability, T/C [13]: 26.9% | viability, T/C [14]: 26.5% | viability, T/C [15]: 22.3% | viability, T/C [16]: 15.8% | viability, T/C [17]: 15.8% | viability, T/C (second compound 3.16 µM, first compound 0.01 µM): 26.8% | viability, T/C [19]: 25.3% | viability, T/C [20]: 22.4% | viability, T/C [21]: 18.8% | viability, T/C [22]: 15.9% | viability, T/C [23]: 13.7% | viability, T/C (second compound 10 µM, first compound 0.01 µM): 25.4% | viability, T/C [25]: 22.9% | viability, T/C [26]: 19.2% | viability, T/C [27]: 14.4% | viability, T/C [28]: 12.9% | viability, T/C [29]: 10.9%
